This is an account of results in patent US20250064941A1, “SIGLEC LIGANDS, CONJUGATES, AND METHODS OF USE THEREOF” (Osprey Biopharmaceuticals, Inc., priority 2023, published 2025).

Experiment [1] addresses T1, mouse Siglec-2-Fc-Avi (CD22) (Mus musculus, UniProt P35329).
T1 construct: made in house
T1 sequence (P35329 22-708 limits assumed): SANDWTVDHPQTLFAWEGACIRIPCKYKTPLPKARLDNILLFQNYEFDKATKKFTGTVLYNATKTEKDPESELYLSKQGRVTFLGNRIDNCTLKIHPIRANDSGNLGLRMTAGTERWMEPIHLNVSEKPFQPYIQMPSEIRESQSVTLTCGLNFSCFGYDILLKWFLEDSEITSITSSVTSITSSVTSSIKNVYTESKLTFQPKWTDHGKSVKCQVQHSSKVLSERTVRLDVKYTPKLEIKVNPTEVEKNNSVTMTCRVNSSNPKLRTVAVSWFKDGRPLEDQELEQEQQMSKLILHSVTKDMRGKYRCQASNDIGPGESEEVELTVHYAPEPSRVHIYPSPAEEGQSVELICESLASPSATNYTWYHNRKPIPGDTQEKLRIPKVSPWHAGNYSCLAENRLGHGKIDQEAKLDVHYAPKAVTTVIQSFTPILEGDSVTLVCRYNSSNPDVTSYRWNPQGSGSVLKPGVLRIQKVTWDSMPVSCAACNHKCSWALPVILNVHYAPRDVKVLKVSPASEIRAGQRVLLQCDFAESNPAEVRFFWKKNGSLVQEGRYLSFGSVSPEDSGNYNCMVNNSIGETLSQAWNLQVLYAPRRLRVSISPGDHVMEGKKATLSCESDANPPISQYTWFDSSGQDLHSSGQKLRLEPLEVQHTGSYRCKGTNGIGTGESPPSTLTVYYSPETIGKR
The experiment can be described thus: SPR binding affinity to mouse CD22. Particulars: steady-state analysis. In short, it runs like this:
(§1)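 Biotinylated CD22 desialylated with SialoExo (4 h, 37° C) before capture on streptavidin chip. Running buffer 10 mM HEPES, 150 mM NaCl, 0.05% Tween-20, pH 7.5, 1% DMSO, with DMSO solvent correction; 120 s dissociation. Compound affinities from steady-state analysis.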
For orientation: In SPR one partner is held on a chip, and binding of the other changes the refractive index at the surface.

Experiment [2] addresses T2, human Siglec-2/CD22 protein (Homo sapiens, UniProt P20273).
T2 construct: purchased Acro Biosystems SI2-H82E3
T2 sequence (P20273 20-847): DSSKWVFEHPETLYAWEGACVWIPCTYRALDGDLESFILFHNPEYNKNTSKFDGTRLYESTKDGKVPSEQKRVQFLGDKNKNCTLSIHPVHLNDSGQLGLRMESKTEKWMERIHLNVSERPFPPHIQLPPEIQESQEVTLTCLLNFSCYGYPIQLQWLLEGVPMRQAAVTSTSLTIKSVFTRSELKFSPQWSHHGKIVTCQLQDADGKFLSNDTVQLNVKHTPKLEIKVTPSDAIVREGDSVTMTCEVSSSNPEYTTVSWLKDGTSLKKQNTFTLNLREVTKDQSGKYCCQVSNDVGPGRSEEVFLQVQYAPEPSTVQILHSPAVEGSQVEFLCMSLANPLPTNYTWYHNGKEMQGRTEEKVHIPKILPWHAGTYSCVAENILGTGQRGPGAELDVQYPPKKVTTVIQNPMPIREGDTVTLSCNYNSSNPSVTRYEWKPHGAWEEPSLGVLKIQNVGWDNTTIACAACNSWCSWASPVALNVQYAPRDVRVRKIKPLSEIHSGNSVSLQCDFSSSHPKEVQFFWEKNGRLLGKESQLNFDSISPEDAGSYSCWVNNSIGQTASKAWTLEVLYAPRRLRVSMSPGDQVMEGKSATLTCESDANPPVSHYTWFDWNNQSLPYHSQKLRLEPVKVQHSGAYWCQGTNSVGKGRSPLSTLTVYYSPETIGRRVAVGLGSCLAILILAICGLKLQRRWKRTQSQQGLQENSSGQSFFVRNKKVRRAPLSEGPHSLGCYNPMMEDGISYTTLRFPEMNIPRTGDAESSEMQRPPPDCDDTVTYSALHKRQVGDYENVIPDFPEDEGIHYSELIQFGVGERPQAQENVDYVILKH
Put plainly: SPR binding affinity to human CD22. Particulars: steady-state analysis. The method in brief:
as §1

Experiment [3] deals with cynomolgus Siglec-2/CD22 (Macaca fascicularis, UniProt A0A2K5WCZ6). Put plainly: biochemical. It counts as binding. Particulars: SPR, steady-state analysis; read-out: Affinity cyno CD22. The protocol: Prior to immobilization, CD22 proteins were treated with SialoExo (Genovis, Cat #G1-SM1-020) for 4 hours at 37° C. to remove native sialic acid residues.
Surface preparation for cyno CD22 protein consisted of amine coupling to Cytiva CM5 chip (Cytiva, Cat #BR100530) using the Cytiva amine coupling kit Type 2 (Cytiva, Cat #BR100633). Following the standard amine coupling protocols, EDC and NHS from the kit were mixed 1:1 and injected over flow cells 1 and 2. […] Any active carboxy groups were then capped with 1M Ethanolamine, pH 8.5 for 420s on flow cells 1 and 2.
Binding experiments of Siglec-ligand conjugated proteins or Siglec ligand compounds were performed on the surfaces prepared above in 10 mM HEPES, 150 mM NaCl, 0.05% Tween-20, pH 7.5, 1% DMSO as the running buffer. […] The compounds were then allowed to dissociate from the surface for 120 seconds. […] Solvent correction was performed using 0.5, 1, 1.5, and 2% DMSO spike into running buffer without DMSO. […] Data was analyzed using steady-state analysis in Biacore Insight Evaluation Software, version 3.0 for Siglec ligand compounds.

Bounds are passed on as bounds.

cynomolgus Siglec-2/CD22, sequence (A0A2K5WCZ6 entry or part of it): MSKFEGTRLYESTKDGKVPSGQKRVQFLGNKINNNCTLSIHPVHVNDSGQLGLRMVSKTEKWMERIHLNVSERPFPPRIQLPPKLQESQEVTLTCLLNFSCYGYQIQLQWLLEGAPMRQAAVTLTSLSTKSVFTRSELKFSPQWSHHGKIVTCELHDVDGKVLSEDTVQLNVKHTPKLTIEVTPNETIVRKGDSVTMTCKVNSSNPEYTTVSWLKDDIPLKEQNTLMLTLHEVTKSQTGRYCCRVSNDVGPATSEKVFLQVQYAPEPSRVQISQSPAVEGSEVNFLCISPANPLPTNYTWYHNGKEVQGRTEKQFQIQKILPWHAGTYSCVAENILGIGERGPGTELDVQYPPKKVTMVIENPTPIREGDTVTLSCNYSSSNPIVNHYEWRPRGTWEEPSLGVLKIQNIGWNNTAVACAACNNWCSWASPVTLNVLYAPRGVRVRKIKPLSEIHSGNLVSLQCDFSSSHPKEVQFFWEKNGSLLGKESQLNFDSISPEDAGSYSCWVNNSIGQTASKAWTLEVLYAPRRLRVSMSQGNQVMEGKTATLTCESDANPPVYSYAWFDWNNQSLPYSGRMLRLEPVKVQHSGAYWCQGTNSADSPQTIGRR

For `C#CCOCCCCCCO[C@]1(C(=O)O)C[C@H](O)[C@@H](NC(=O)CO)[C@H]([C@H](O)[C@H](O)CNC(=O)Cc2ccc(Cl)cc2)O1` [Compound 113, (2R,4S,5R,6R)-6-((1R,2R)-3-(2-(4-chlorophenyl)acetamido)-1,2-dihydroxypropyl)-4-hydroxy-5-(2-hydroxyacetamido)-2-((6-(prop-2-yn-1-yloxy)hexyl)oxy)tetrahydro-2H-pyran-2-carboxylic acid], the values for the Kd in experiment [1], in experiment [2] and in experiment [3] were 1000 to 10000 nM, less than 1000 nM and less than 1000 nM, respectively.

Turning to `C#CCC(NC(=O)CCCO[C@]1(C(=O)O)C[C@H](O)[C@@H](NC(=O)CO)[C@H]([C@H](O)[C@H](O)CNC(=O)Cc2ccc(Cl)cc2)O1)C(=O)O` (stereo partly drawn) [Compound 102, (2R,4S,5R,6R)-2-(4-((1-carboxybut-3-yn-1-yl)amino)-4-oxobutoxy)-6-((1R,2R)-3-(2-(4-chlorophenyl)acetamido)-1,2-dihydroxypropyl)-4-hydroxy-5-(2-hydroxyacetamido)tetrahydro-2H-pyran-2-carboxylic acid], the Kd in experiment [1], in experiment [2] and in experiment [3] was 1000 to 10000 nM each time.

On to `C#CCCOc1ccc(CO[C@]2(C(=O)O)C[C@H](O)[C@@H](NC(N)=O)[C@H]([C@H](O)[C@H](O)CNC(=O)Cc3ccc(Cl)cc3)O2)cc1` [Compound 205, (2R,4S,5R,6R)-2-((4-(but-3-yn-1-yloxy)benzyl)oxy)-6-((1R,2R)-3-(2-(4-chlorophenyl)acetamido)-1,2-dihydroxypropyl)-4-hydroxy-5-ureidotetrahydro-2H-pyran-2-carboxylic acid], for which the Kd in experiment [1], in experiment [2] and in experiment [3] was less than 1000 nM throughout.

As for `C#CCOCCOCCO[C@]1(C(=O)O)C[C@H](O)[C@@H](NC(=O)CO)[C@H]([C@H](O)[C@H](O)CNC(=O)Cc2ccc(-c3cccc(C#N)c3)cc2)O1` [Compound 81, (2R,4S,5R,6R)-6-((1R,2R)-3-(2-(3′-cyano-[1,1′-biphenyl]-4-yl)acetamido)-1,2-dihydroxypropyl)-4-hydroxy-5-(2-hydroxyacetamido)-2-(2-(2-(prop-2-yn-1-yloxy)ethoxy)ethoxy)tetrahydro-2H-pyran-2-carboxylic acid], the figures for the Kd in experiment [1], in experiment [2] and in experiment [3] were greater than 10000 nM, 1000 to 10000 nM and 1000 to 10000 nM, respectively.

Take `C#CCCOc1ccc(CO[C@]2(C(=O)O)C[C@H](O)[C@@H](NC(=O)CO)[C@H]([C@H](O)[C@H](O)CNC(=O)Cc3ccc(Cl)c(O)c3)O2)cc1` [Compound 135, (2R,4S,5R,6R)-2-((4-(but-3-yn-1-yloxy)benzyl)oxy)-6-((1R,2R)-3-(2-(4-chloro-3-hydroxyphenyl)acetamido)-1,2-dihydroxypropyl)-4-hydroxy-5-(2-hydroxyacetamido)tetrahydro-2H-pyran-2-carboxylic acid]: the Kd in experiment [1], in experiment [2] and in experiment [3] was less than 1000 nM each time.

On to `C#CCCOCCOCCO[C@]1(C(=O)O)C[C@H](O)[C@@H](NC(=O)CO)[C@H]([C@H](O)[C@H](O)CNC(=O)Cc2ccc(-c3ccc(O)cc3)cc2)O1` [Compound 83, (2R,4S,5R,6R)-2-(2-(2-(but-3-yn-1-yloxy)ethoxy)ethoxy)-6-((1R,2R)-1,2-dihydroxy-3-(2-(4′-hydroxy-[1,1′-biphenyl]-4-yl)acetamido)propyl)-4-hydroxy-5-(2-hydroxyacetamido)tetrahydro-2H-pyran-2-carboxylic acid], for which the Kd in experiment [1] was 1000 to 10000 nM; in experiment [2], less than 1000 nM; in experiment [3], 1000 to 10000 nM.

`C#CCOCCCCCCO[C@]1(C(=O)O)C[C@H](O)[C@@H](NC(=O)C(=O)NC)[C@H]([C@H](O)[C@H](O)CNC(=O)Cc2ccc(Cl)cc2)O1` [Compound 189, (2R,4S,5R,6R)-6-((1R,2R)-3-(2-(4-chlorophenyl)acetamido)-1,2-dihydroxypropyl)-4-hydroxy-5-(2-(methylamino)-2-oxoacetamido)-2-((6-(prop-2-yn-1-yloxy)hexyl)oxy)tetrahydro-2H-pyran-2-carboxylic acid]: the results for the Kd in experiment [1], in experiment [2] and in experiment [3] were 1000 to 10000 nM, 1000 to 10000 nM and less than 1000 nM, respectively.

Consider `C#CCOCCCCCCO[C@]1(C(=O)O)C[C@H](O)[C@@H](NC(=O)CO)[C@H]([C@H](O)[C@H](O)CNC(=O)Cc2ccc(C(F)(F)F)cc2)O1` [Compound 158, (2R,4S,5R,6R)-6-((1R,2R)-1,2-dihydroxy-3-(2-(4-(trifluoromethyl)phenyl)acetamido)propyl)-4-hydroxy-5-(2-hydroxyacetamido)-2-((6-(prop-2-yn-1-yloxy)hexyl)oxy)tetrahydro-2H-pyran-2-carboxylic acid], for which the Kd in experiment [1] is 1000 to 10000 nM; in experiment [2], less than 1000 nM; in experiment [3], 1000 to 10000 nM.

`CC(=O)NCCOCCOCCOCCOCCNc1c(NCCOCCOCCO[C@]2(C(=O)O)C[C@H](O)[C@@H](NC(=O)CO)[C@H]([C@H](O)[C@H](O)CNC(=O)Cc3ccc(Cl)cc3)O2)c(=O)c1=O` [Cpd. 247, (2R,4S,5R,6R)-6-((1R,2R)-3-(2-(4-chlorophenyl)acetamido)-1,2-dihydroxypropyl)-2-(2-(2-(2-((3,4-dioxo-2-((2-oxo-6,9,12,15-tetraoxa-3-azaheptadecan-17-yl)amino)cyclobut-1-en-1-yl)amino)ethoxy)ethoxy)ethoxy)-4-hydroxy-5-(2-hydroxyacetamido) tetrahydro-2H-pyran-2-carboxylic acid]: the Kd in experiment [1], in experiment [2] and in experiment [3] was 1000 to 10000 nM each time.

Take `O=C(Cc1ccc(Cl)cc1)NC[C@@H](O)[C@@H](O)[C@@H]1O[C@@](OCC2CCOCC2)(C(=O)O)C[C@H](O)[C@H]1NC(=O)CO` [Compound 106, (2R,4S,5R,6R)-6-((1R,2R)-3-(2-(4-chlorophenyl)acetamido)-1,2-dihydroxypropyl)-4-hydroxy-5-(2-hydroxyacetamido)-2-((tetrahydro-2H-pyran-4-yl)methoxy)tetrahydro-2H-pyran-2-carboxylic acid]: the Kd was 1000 to 10000 nM in experiment [1], less than 1000 nM in experiment [2] and less than 1000 nM in experiment [3].

Regarding `C#CCOC[C@H](O)[C@@H](O)CO[C@]1(C(=O)O)C[C@H](O)[C@@H](NC(=O)CO)[C@H]([C@H](O)[C@H](O)CNC(=O)Cc2ccc(Cl)cc2)O1` [Compound 24, (2R,4S,5R,6R)-6-((1R,2R)-3-(2-(4-chlorophenyl)acetamido)-1,2-dihydroxypropyl)-2-((2S,3S)-2,3-dihydroxy-4-(prop-2-yn-1-yloxy)butoxy)-4-hydroxy-5-(2-hydroxyacetamido)tetrahydro-2H-pyran-2-carboxylic acid], the Kd is greater than 10000 nM in experiment [1], 1000 to 10000 nM in experiment [2] and 1000 to 10000 nM in experiment [3].
